Columns and labels:
PK, oral administration = type: in vivo, male Sprague Dawley rats; conditions: male, Sprague Dawley, plasma, rat, 3 mg/kg
Procedure: Pharmacokinetic parameters were determined in male Sprague Dawley rats (Vital River Laboratory Animal Technology Co Ltd, Beijing, China, 6-9 weeks old). Animals were maintained under a 12 h light/dark cycle. Animals had free access to food and water, except that orally dosed animals were food deprived overnight prior to the study.
For intravenous administration, compounds were formulated as a solution (in DMSO:water [10:90] or in DMSO:PBS [10:90]) in 2 mL/kg dosing volume and administered via tail vein. For oral administration, compounds were formulated as a solution (in 0.5% methylcellulose in water) in […] dosing volume and administered orally.
Serial blood samples (about 200 μL) were taken from each animal at each of 8 time-points post dose ([…], 0.25, 0.5, 1, 2, 4, 8 and 24 h). Samples were held on ice for no longer than 30 minutes before centrifugation (5,696 rpm (3,000 g) for 15 minutes) for plasma generation. Plasma was frozen on dry ice prior to bioanalysis. PK parameters were generated from LC-MS/MS data using Phoenix WinNonlin 6.3 software.

[1] = PK, intravenous administration; type: in vivo; conditions: rat, plasma, male Sprague Dawley rats, dose about 1 mg/kg
Method in brief: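 Male Sprague Dawley rats (6-9 weeks); IV dosing via tail vein as solution in DMSO:water or DMSO:PBS (10:90), oral dosing in 0.5% methylcellulose after overnight fasting. Plasma sampled at 8 time-points to 24 h; parameters derived from LC-MS/MS data.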

NLRP3 = NLRP3 (Homo sapiens, UniProt Q96P20); assay: THP-1 cells pyroptosis assay; type: cell-based; parameters: Seed THP-1 cells (25,000 cells/well) containing 1.0 μg/ml LPS; host or cells: THP-1; conditions: LPS 1.0 μg/ml, nigericin 5 μM, resazurin readout, 10 μM top dose (Example 2: top dose of 30 μM)
Sequence of NLRP3 (Q96P20 whole entry): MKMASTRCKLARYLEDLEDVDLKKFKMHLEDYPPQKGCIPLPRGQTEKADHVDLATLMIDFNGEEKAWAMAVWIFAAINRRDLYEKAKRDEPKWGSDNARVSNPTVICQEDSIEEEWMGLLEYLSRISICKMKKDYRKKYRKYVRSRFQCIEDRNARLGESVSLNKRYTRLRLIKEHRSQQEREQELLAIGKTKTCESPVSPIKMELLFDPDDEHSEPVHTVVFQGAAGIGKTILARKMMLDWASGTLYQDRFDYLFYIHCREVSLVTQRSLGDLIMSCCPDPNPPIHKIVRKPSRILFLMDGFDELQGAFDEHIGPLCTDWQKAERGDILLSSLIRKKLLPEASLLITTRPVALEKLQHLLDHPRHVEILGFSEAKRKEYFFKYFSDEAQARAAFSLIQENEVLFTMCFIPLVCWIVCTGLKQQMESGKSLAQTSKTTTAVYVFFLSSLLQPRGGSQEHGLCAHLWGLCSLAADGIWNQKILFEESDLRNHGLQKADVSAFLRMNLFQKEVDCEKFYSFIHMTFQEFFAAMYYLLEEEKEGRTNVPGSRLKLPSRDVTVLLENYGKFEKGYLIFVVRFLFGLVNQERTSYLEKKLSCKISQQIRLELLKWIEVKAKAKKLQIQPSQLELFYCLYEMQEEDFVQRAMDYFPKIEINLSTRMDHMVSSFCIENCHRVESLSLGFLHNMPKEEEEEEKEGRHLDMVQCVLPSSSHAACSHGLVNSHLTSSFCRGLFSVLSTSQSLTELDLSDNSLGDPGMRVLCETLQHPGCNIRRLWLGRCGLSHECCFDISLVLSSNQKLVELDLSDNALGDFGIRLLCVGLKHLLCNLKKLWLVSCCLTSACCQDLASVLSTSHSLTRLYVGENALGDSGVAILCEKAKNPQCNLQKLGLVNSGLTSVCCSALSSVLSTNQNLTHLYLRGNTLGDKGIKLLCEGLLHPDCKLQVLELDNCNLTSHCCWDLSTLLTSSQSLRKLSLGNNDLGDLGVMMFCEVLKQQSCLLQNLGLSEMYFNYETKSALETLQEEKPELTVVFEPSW
Method in brief: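 THP-1 cells (25,000/well) primed with 1 μg/ml LPS in serum-free RPMI, treated with compound (8-point dilution, 10 μM top unless stated; 0.1% DMSO) 3 h at 37°C, then nigericin 5 μM 1 h. Viability read by resazurin (100 μM, 1-2 h) fluorescence; IC50 from 4-parameter fit.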

NLRP3 inflammasome = conditions: previously characterised weak NLRP3 inhibitors; nonspecific; cited from earlier work

Row | AUC (PK, oral administration) [ng·h/mL] | CL/F (PK, oral administration) [mL/min/kg] | Cmax (PK, oral administration) [ng/mL] | Tmax (PK, oral administration) [min] | bioavailability (PK, oral administration) [%] | half-life (PK, oral administration) [min] | AUC [1] [ng·h/mL] | clearance [1] [mL/min/kg] | half-life [1] [min] | Vd ([1]; read-out: Vdss) [L/kg] | IC50 (NLRP3) [nM] | Structure (SMILES) | NLRP3 inhibition (NLRP3 inflammasome)
1 | 878 | 61.5 | 594 | 15 | 48.6 | 72 | 602 | 28 | 42 | 0.66 | ≤ 1000 | CN(C)Cc1ccc(S(=O)(=O)c2nnc(Nc3c4c(cc5c3CCC5)CCC4)[nH]2)cc1 [Example 43, 5-((4-((dimethylamino)methyl)phenyl)sulfonyl)-N-(1,2,3,5,6,7-hexahydro-s-indacen-4-yl)-4H-1,2,4-triazol-3-amine] | –
2 | – | – | – | – | – | – | – | – | – | – | – | O=[N+]([O-])C=Cc1ccc2c(c1)OCO2 [3,4-methylenedioxy-β-nitrostyrene] | limited potency
3 | – | – | – | – | – | – | – | – | – | – | – | C[S+](C)[O-] [dimethyl sulfoxide] | limited potency
